Laboratory results taken from PMC7316778 (Nature Communications, 2020).
Where “and” joins values, the source holds several entries; their conditions need not be identical. Equal entries are not always repeated. Where two headings read alike, the source gives them in different places.

How the values were obtained:
Assay in all cases: SelectScreen kinase assay
BTK = BTK (Homo sapiens, UniProt Q06187)
Method: (§1) Selectivity profiling assays were performed by the Invitrogen SelectScreen™ Services. […] The concentration of ATP was selected to be equal to the KM, unless indicated otherwise.

ACVR1B (ALK4) = target: T1, ACVR1B (ALK4) (Homo sapiens, UniProt P36896); details: for Inhibition at 1 µM (%): ACVR1B (ALK4), ZLYTE, ATP Km app
T1 sequence (P36896 24-505): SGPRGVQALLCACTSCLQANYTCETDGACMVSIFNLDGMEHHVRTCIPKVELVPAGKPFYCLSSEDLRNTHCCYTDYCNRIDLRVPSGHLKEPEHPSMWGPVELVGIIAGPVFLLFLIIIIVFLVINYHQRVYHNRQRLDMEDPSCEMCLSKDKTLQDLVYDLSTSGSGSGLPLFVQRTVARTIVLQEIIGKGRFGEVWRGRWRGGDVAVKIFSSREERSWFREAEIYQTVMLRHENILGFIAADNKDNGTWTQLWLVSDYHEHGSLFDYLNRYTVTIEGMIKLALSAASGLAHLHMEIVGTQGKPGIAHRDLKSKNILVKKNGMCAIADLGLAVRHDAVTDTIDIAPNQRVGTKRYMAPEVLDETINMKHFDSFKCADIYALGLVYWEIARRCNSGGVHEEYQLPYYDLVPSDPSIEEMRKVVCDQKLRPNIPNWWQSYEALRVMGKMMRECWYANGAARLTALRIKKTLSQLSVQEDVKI
Method: as §1

RPS6KB1 (p70S6K) = RPS6KB1 (p70S6K) (Homo sapiens, UniProt P23443)
Chain of RPS6KB1 (p70S6K) (P23443 whole entry): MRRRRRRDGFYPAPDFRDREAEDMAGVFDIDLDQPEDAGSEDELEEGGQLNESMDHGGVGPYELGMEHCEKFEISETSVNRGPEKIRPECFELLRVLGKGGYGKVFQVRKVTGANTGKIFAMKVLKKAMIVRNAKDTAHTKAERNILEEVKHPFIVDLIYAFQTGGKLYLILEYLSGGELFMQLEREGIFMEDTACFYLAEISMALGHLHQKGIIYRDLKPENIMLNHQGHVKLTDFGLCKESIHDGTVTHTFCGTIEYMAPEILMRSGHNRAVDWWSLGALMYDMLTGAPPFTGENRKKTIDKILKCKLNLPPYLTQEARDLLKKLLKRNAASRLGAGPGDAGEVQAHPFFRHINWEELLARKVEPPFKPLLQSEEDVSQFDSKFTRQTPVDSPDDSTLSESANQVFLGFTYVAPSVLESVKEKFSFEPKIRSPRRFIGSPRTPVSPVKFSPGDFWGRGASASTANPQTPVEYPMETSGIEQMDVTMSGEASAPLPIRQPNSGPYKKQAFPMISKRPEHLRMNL
Method: as §1

IRAK3 = target: T2, IRAK3 (Homo sapiens, UniProt Q9Y616)
T2 sequence (Q9Y616 1-596): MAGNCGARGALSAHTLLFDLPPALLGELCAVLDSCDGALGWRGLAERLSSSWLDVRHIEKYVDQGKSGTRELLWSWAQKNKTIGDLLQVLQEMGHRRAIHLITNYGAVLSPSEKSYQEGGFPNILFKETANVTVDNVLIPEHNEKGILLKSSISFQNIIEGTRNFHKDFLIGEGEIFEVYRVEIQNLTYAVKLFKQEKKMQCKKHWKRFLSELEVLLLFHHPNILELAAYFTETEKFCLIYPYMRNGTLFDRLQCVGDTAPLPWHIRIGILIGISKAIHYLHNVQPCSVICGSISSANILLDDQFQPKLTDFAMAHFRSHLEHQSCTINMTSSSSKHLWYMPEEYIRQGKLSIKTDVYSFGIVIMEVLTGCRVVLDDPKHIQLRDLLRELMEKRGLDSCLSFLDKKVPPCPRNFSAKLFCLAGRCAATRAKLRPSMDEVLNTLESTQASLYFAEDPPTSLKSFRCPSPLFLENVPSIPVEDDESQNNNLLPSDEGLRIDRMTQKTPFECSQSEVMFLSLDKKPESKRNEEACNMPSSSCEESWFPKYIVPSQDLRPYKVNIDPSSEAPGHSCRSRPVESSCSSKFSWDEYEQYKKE
Method: as §1

PDK1 = target: T3, PDK1 (Homo sapiens, UniProt O15530)
T3 sequence (O15530 1-556): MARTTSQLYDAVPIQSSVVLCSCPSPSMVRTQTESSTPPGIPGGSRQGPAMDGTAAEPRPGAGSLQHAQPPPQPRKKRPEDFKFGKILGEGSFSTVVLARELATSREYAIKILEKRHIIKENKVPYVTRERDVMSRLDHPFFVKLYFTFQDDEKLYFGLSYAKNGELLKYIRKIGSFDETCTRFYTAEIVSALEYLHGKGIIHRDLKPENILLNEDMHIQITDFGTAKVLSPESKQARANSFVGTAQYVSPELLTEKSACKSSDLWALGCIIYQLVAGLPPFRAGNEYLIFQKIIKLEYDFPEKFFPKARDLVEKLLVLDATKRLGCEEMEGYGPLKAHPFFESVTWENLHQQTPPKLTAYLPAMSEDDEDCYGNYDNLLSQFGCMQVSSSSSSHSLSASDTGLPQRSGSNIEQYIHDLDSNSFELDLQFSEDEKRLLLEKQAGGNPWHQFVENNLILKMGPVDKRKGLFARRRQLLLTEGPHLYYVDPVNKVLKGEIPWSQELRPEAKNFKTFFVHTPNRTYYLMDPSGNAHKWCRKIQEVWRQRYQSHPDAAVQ
Method: as §1

MAP3K14 (NIK) = MAP3K14 (NIK) (Homo sapiens, UniProt Q99558)
Chain of MAP3K14 (NIK) (Q99558 whole entry): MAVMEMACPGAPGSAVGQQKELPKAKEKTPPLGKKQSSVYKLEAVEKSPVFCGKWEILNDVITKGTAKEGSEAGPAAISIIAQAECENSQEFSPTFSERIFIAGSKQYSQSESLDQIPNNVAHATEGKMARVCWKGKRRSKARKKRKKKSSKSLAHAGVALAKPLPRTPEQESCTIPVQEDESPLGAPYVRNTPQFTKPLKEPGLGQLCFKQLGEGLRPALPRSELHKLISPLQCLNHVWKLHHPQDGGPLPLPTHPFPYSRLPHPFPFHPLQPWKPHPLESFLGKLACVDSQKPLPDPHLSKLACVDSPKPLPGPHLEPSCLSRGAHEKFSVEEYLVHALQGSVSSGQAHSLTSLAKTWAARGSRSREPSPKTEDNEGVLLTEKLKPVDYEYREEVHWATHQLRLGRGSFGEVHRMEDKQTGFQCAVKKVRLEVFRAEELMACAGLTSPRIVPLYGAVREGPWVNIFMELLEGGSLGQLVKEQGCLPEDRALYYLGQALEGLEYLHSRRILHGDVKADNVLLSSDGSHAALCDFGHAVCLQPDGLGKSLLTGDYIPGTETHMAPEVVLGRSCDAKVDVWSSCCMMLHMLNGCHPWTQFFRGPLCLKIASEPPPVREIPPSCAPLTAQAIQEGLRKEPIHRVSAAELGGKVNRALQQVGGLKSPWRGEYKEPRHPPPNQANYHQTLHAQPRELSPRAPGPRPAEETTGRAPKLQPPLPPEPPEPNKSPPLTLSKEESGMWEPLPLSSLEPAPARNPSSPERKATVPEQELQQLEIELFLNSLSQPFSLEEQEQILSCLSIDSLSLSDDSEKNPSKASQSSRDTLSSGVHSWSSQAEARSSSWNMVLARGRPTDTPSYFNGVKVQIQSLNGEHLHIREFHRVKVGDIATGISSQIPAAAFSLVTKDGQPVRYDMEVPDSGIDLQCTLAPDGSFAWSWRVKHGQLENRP
Method: as §1

PIP4K2A = PIP4K2A (Homo sapiens, UniProt P48426); details: 1 h, 1 μM WEL028, 1 h preincubation
Chain of PIP4K2A (P48426 whole entry): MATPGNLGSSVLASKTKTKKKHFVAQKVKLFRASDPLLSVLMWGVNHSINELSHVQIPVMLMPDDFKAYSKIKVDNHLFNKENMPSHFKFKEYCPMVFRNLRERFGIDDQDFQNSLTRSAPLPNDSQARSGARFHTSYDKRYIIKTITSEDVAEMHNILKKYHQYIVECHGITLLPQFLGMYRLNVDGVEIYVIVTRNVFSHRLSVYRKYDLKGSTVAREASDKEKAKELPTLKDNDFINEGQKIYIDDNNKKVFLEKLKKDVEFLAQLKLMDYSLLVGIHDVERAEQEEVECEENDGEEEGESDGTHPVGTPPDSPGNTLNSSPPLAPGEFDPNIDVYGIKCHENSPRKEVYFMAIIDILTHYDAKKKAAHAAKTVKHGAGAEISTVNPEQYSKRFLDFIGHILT
Method: as §1

[1] = 1 h, 1 μM WEL028, 1 h preincubation

Chain of BTK (Q06187 whole entry): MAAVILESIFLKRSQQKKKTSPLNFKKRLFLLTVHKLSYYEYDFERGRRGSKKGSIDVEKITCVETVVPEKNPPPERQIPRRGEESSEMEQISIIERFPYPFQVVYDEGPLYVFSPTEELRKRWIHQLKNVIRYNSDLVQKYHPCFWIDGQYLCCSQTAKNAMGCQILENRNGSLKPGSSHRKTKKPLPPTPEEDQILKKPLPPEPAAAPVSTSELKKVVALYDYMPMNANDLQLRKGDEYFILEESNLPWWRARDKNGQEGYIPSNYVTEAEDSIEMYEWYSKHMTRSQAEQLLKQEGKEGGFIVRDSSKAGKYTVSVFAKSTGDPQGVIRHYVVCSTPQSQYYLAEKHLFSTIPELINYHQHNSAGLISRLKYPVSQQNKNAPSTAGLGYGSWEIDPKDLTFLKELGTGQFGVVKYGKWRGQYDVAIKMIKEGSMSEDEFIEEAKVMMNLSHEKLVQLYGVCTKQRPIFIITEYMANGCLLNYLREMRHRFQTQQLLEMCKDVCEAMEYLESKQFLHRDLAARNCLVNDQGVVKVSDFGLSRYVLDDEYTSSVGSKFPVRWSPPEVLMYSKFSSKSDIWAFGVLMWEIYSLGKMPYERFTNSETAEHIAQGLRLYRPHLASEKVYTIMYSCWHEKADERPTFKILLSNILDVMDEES

C#CCOc1ccc(Nc2ncc(Cl)c(Nc3ccccc3NC(=O)C=C)n2)c(OC)c1 [Compound 6]
Inhibition (%) (BTK; 1 μM WEL028, 1 h preincubation): 11% | Inhibition at 1 µM (%) (BTK; BTK, 1 µM, ZLYTE, ATP Km app): 17% | inhibition at 1 µM (ACVR1B (ALK4); [1]): 1% | Inhibition at 1 µM (%) (ACVR1B (ALK4)): -2% | Inhibition at 1 µM (%) (ACVR1B (ALK4); listed as WEL028, 1 µM): 5% | Inhibition at 1 µM (%) (RPS6KB1 (p70S6K); 1 µM, ZLYTE, ATP Km app): 15% | inhibition at 1 µM (RPS6KB1 (p70S6K); [1]): 4% | inhibition at 1 µM (IRAK3; [1]): 56% | Inhibition at 1 µM (%) (IRAK3; IRAK3, 1 µM, LanthaScreen Binding, listed as WEL028, 1 µM): 58% | inhibition at 1 µM (IRAK3; read-out: Inhibition at 1 µM (%), IRAK3, 1 µM, LanthaScreen Binding): 55% | inhibition at 1 µM (PDK1; [1]): 36% | Inhibition at 1 µM (%) (PDK1; PDK1, 1 µM, ZLYTE, ATP 100, listed as WEL028, 1 µM): 35% | inhibition at 1 µM (PDK1; read-out: Inhibition at 1 µM (%), PDK1, 1 µM, ZLYTE, ATP 100): 36% | inhibition at 1 µM (MAP3K14 (NIK); [1]): 3% | Inhibition at 1 µM (%) (MAP3K14 (NIK); MAP3K14 (NIK), 1 µM, LanthaScreen Binding, listed as WEL028, 1 µM): 7% and -1% | inhibition at 1 µM (PIP4K2A): -10%
